Key:
[1] = Oxaliplatin or cisplatin tissue uptake after intra-urinary bladder perfusion or IV bolus in rats; details: 6- or 24-hour continuous bladder perfusion; FIG. 10 and FIG. 11
[2] = 14C gemcitabine tissue uptake after intra-urinary bladder perfusion or IV bolus in rats; assay type: in vivo, male Sprague Dawley rats
Procedure: The 6- and 24-hour continuous perfusions perfused 6.9 and 26.6 mg, respectively, of gemcitabine into the bladder. The single IV bolus included 5.0 mg of gemcitabine.
Blood (FIG. 8), urine, and tissue samples (e.g., bladder, prostate) (FIGS. 7 and 9) were collected and analyzed for gemcitabine content. The results are illustrated in FIGS. 7-9.

[3] = test system: prostate cancer; details: Phase 2 clinical studies; cited from earlier work

Structure (SMILES)	bladder concentrations [1]	gemcitabine levels in bladder tissue ([2]; 6- or 24-hour continuous bladder perfusion (6.9 and 26.6 mg), sustained urine concentrations, FIG. 9)	concentration of gemcitabine in the bladder ([2]; 24 hours after a clinically relevant IV dose (5.0 mg bolus), compared with bladder perfusion, FIG. 9)	prostate gemcitabine tissue concentrations ([2]; after bladder perfusion, compared with IV administration, FIG. 7)	efficacy in prostate cancer patients [3]
O=C1[O][Pt]2([NH][C@@H]3CCCC[C@H]3[NH]2)[O]C1=O [oxaliplatin]	achieving therapeutic bladder concentrations				
Nc1ccn([C@@H]2O[C@H](CO)[C@@H](O)C2(F)F)c(=O)n1 [gemcitabine]		at or exceed therapeutic concentrations	significantly lower concentration	substantially higher than those observed after IV administration	limited efficacy
